In paper PMC8041433 (Environmental Health Perspectives, 2021):
“And” between values parts separate entries of the source, which are not always exact repeats. Equal entries are not always repeated. Structures can show the parent of a compound that is named as a salt. Where two headings read alike, the source gives them in different places.

Columns and labels:
recombinant human AChE [1] = target: T1, recombinant human AChE (Homo sapiens, UniProt P22303)
recombinant human AChE [2] = target: T1, recombinant human AChE; experiment: biochemical
AChE in SH-SY5Y cells = AChE in SH-SY5Y cells (Homo sapiens, UniProt P22303); experiment: cell-based
Chain of AChE in SH-SY5Y cells (P22303 32-614): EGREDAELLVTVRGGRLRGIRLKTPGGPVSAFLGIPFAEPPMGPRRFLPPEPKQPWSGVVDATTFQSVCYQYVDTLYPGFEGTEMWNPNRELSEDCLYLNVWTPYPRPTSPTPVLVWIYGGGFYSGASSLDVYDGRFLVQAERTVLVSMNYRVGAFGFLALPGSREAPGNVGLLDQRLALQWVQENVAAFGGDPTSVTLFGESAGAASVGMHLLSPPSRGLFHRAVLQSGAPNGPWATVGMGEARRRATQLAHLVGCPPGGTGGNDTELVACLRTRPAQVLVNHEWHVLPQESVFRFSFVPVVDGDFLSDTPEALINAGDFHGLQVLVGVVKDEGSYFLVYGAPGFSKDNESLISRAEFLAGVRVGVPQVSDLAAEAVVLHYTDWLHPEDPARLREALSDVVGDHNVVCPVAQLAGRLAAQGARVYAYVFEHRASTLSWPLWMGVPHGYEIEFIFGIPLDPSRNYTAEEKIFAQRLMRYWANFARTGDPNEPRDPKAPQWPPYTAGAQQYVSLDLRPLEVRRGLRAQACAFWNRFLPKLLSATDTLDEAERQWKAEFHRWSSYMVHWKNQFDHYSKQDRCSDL

T1 sequence (P22303 32-614): as above

Row | Structure (SMILES) | CC-v2 (curve classes) (recombinant human AChE [1]) | Efficacy (recombinant human AChE [1]) | CC-v2 (curve classes) (recombinant human AChE [2]) | Efficacy (recombinant human AChE [2]) | IC50 (recombinant human AChE [2]; read-out: IC50) | CC-v2 (curve classes) (AChE in SH-SY5Y cells) | IC50 (recombinant human AChE [2]; IC50 (uM)) | IC50 (AChE in SH-SY5Y cells; IC50 (uM)) | IC50 (AChE in SH-SY5Y cells; read-out: IC50)
1 | CCCCCCCCCC[N+](C)(CCCCCCCCCC)CCC[Si](OC)(OC)OC.[Cl-] [Disiquonium chloride] | 4 | 0 | -3 | -65.382 | 79.6 µM | 4 | – | – | –
2 | C=CCN1CC[C@]23CCCC[C@H]2[C@H]1Cc1ccc(O)cc13 [Levallorphan] | 4 | 0 | 4 | -27.829 | – | -2.1 | – | – | –
3 | CCCCCCCCCCCCCC[n+]1ccccc1 [Tetradecylpyridinium bromide] | 4 | 0 | -2.1 | -102.568 | – | -1.1 and -2.1 | 56.4 µM | 31.7 µM and 39.9 µM | –
4 | CCCCOc1ccc(C(=O)CCN2CCCCC2)cc1 [Dyclonine hydrochloride] | 4 | 0 | -2.2 | -57.155 | – | -2.1 | 27.5 µM | 12.3 µM and 13.8 µM | –
5 | Cc1cc(N)c2cc(NC(=O)Nc3ccc4nc(C)cc(N)c4c3)ccc2n1.Cl.Cl [Aminoquinuride dihydrochloride] | 4 | 0 | 4 | -15.256 | – | – | – | – | 38.9 µM and 30.9 µM
6 | COc1nn(CSP(=S)(OC)OC)c(=O)s1 [Methidathion] | 4 | – | 4 | 0 | – | – | – | 63.3 µM and 79.6 µM and 71 µM and 56.4 µM and 39.9 µM and 35.6 µM and 44.8 µM and 50.2 µM | –
7 | COc1cc(N)c(Cl)cc1C(=O)NC1CN2CCC1CC2.Cl (centres unmarked) [Zacopride hydrochloride] | 4 | 0 | 4 | 0 | – | -2.2 | – | – | –
8 | [H]/N=C(\N/C(=N/[H])NCCCCCCNC(=N)NC(=N)Nc1ccc(Cl)cc1)Nc1ccc(Cl)cc1 [Chlorhexidine dihydrochloride] | 4 | 14.978 | -1.1 | -89.988 | – | – | 22.9 µM | 72.3 µM and 64.4 µM | –
9 | CC(C)C[C@H]1C(=O)N2CCC[C@H]2[C@]2(O)O[C@](NC(=O)[C@@H]3C=C4c5cccc6[nH]c(Br)c(c56)C[C@H]4N(C)C3)(C(C)C)C(=O)N12 [Bromocriptine mesylate] | 4 | 0 | -1.1 | -70.597 | – | -1.1 | – | 5.38 µM and 2.7 µM | –
10 | CCN1C(=CC=Cc2sc3ccccc3[n+]2CC)Sc2ccccc21.[I-] [3,3'-Diethylthiacarbocyanine iodide] | 4 | 0 | -3 | -76.506 | 19 µM | -2.1 and -2.2 | – | – | 10.7 µM and 15.1 µM
11 | CCOP(=O)(OCC)OC(=CCl)c1ccc(Cl)cc1Cl [Chlorfenvinphos] | -1.1 | -96.159 | -1.1 | -95.584 | – | -1.1 | – | – | –
12 | CN1C[C@H](C(=O)N[C@]2(C)O[C@@]3(O)[C@@H]4CCCN4C(=O)[C@H](Cc4ccccc4)N3C2=O)C=C2c3cccc4[nH]cc(c34)C[C@H]21 [Ergotamine D-tartrate] | 4 | 0 | – | – | – | -1.1 | 29.5 µM and 5.67 µM | 8.32 µM and 1.01 µM and 3.72 µM and 1.13 µM and 0.898 µM | –
13 | CN(CCOc1ccc(NS(C)(=O)=O)cc1)CCc1ccc(NS(C)(=O)=O)cc1 [Dofetilide] | – | 0 | – | -14.56 | – | – | – | 17.4 µM | –
14 | CNC(=O)O/N=C(\C)C(C)S(C)(=O)=O (centres unmarked) [Butoxycarboxim] | 4 | 0 | -2.2 | -49.747 | – | -2.1 | 794 µM | 355 µM and 398 µM and 447 µM | –
15 | N#Cc1sc2c(=O)c3ccccc3c(=O)c=2sc1C#N [Dithianon] | 4 | 0 | 4 | -13.233 | – | -2.1 | – | 44.8 µM and 63.3 µM | –
16 | CN(C)C(=S)SC(=S)N(C)C [Tetramethylthiuram monosulfide] | 4 | – | 4 | – | – | – | – | 31.7 µM and 72.8 µM and 63.3 µM and 56.4 µM | –
17 | O=C1c2c(O)ccc(Nc3ccc(CCO)cc3)c2C(=O)c2c([N+](=O)[O-])ccc(O)c21 [C.I. Disperse Blue 27] | 4 | 0 | -1.2 | -62.368 | 20 µM | -1.1 | – | – | 8.94 µM and 10 µM
18 | COP(=O)(OC)O/C(C)=C/C(=O)N(C)C [Dicrotophos] | 4 | 0 | -2.2 | -67.448 | – | -2.1 | 63.7 µM | 40.2 µM and 31.9 µM | –
